Results taken from PMC11325505, “Nitrogen-Containing Flavonoids—Preparation and Biological Activity” (ACS Omega, 2024).

Tested on: transmembrane efflux pumps
Assay: Ethidium bromide accumulation assay
Format: cell-based, S. aureus MSSA 2
Settings: for efflux inhibition (ethidium bromide accumulation), in words: compared with comparator CCCP, concentrations 25–100 μM; for accumulation of ethidium bromide compared to 100 μM CCCP: compound at 25 μM, relative to CCCP (100 μM)
Text: The application of antibiotics often leads to oxidative stress in bacteria, which triggers the efflux pump systems that contribute to antimicrobial resistance.[34] Therefore, modulation of the efflux system has been proposed as another plausible target of derivatives. The efflux pump inhibitor carbonyl cyanide 3-chlorophenylhydrazone (CCCP) was used as a comparator in our assay. Its action destroys the proton-motive force at the membrane so that the efflux pump cannot transport substrates out of the cell. One such universal substrate is ethidium bromide, the accumulation of which in the cell can be measured using fluorescence.
The accumulation assay was performed according to previously published methods with minor modifications.[15],[42] Briefly, a bacterial culture of S. aureus MSSA 2 cultured overnight in the presence of colistin (4 mg/L) to induce oxidative stress and activate efflux system[34] was diluted in PBS to OD600 nm = 0.6. The suspension was centrifuged (13,000 × g; 3 min), resuspended in fresh PBS, and distributed into the wells of a black 96-well microtiter plate (ThermoFisher Scientific). Samples were diluted with EtBr solution (4 μg/mL). 50 μL of the mixture was added to 50 μL of the bacterial suspension. The reaction was monitored using SpectraMax iD5Multi-Mode Microplate Reader (ex/em = 530/600 nm) every 60 s for 60 min.

SMILES | efflux inhibition (ethidium bromide accumulation), in words | accumulation of ethidium bromide compared to 100 μM CCCP
O=c1c(O)c(-c2ccc(O)c(O)c2)oc2cc(O)cc(O)c12 [compound 4, quercetin, reference compound] | efflux inhibitors | –
O=c1cc(-c2ccc(O)c(O)c2)oc2c(Nc3ccc(F)cc3)c(O)cc(O)c12 [compound 11, 2-(3,4-Dihydroxyphenyl)-8-(4-fluoroanilino)-5,7-dihydroxy-4H–1-benzopyran-4-one] | higher activity than CCCP alone | comparable to 8-(4-fluoroanilino) quercetin (5)
O=c1cc(-c2ccc(O)c(O)c2)oc2cc(O)cc(O)c12 [compound 10, luteolin, reference compound] | significantly better than CCCP at the same concentration (100 μM) | –
O=c1c(O)c(-c2ccc(O)c(O)c2)oc2c(Nc3ccc(F)cc3)c(O)cc(O)c12 [compound 5, 2-(3,4-Dihydroxyphenyl)-8-(4-fluoroanilino)-3,5,7-trihydroxy-4H–1-benzopyran-4-one] | – | 75%
